Measured values reported in patent publication EP2331496B1, “USE OF AN N-ACYL AMINO ACID SELECTED FROM AMONG N-PALMITOYL ALANINE, N-PALMITOYL GLYCINE, AND N-PALMITOYL ISOLEUCINE AS A REGULATING ACTIVE AGENT OF THE GENETIC PROFILE OF SENESCENT REPLICATING FIBROBLASTS OF THE HUMAN SKIN DERMIS” (Societe D'Exploitation De Produits Pour Les Industries …, priority 2008, dated 2010).
One block for each compound: values may come before it.

Key:
[1] = tested on: gène codant la métallo protéinase MMP-1; test: Q-PCR gene expression in replicative senescent human dermal fibroblasts: MMP-1; format: cell-based, humains; details: aged fibroblasts from adult dermis (16 passages), cultured 96 h with the substance, compared with young cells (8 passages, 100 %)
Source text: (§1) Des fibroblastes humains normaux issus de derme adulte et vieillis de manière accélérée (16 passages en culture) ou non (8 passages en culture) ont été cultivés en présence ou non de chacun des quatre N-acyl amino acides suivants : N-palmitoyl glycine, N-palmitoyl alanine, N-palmitoyl isoleucine et N-cocoyl alanine pendant 96 heures. A la fin de l'expérience, les cellules ont été lavées et extraites pour l'analyse génomique. Cette dernière a été réalisée par Q-PCR ("Quantitative Polymerase Chain Reaction").
(§2) Pour chacun des diagrammes de ces figures, les résultats sont exprimés en pourcentage de variation des niveaux relatifs d'expression génique par rapport aux cellules jeunes (100 %), les pourcentages en haut des histogrammes expriment les pourcentages de restauration et les abréviations indiquées sont conformes à la nomenclature officielle Genbank.

[2] = tested on: gène codant le collagène de type I (COL1A1); test: Q-PCR gene expression in replicative senescent human dermal fibroblasts: COL1A1; format: cell-based, humains; details: aged fibroblasts from adult dermis (16 passages), cultured 96 h with the substance, compared with young cells (8 passages, 100 %)
Source text: as §1, §2

[3] = tested on: sujets caucasiens âgés de 45 ans à 76 ans et présentant des rides de vieillissement cutané; test: In vivo anti-wrinkle efficacy, topical gel-cream on the eye contour (crow's feet); set-up: species or system humain; details: 1% gel-cream, topical twice daily on the face, crow's feet zone, 42 days, about 20 volunteers/group; results expressed relative to a commercial reference lipopeptide product
Source text: Les N-acyl amino acides testés ont été formulés en gel-crème à 1% dans le couple d'émulsionnants MONTANOV™ 202, MONTANOV™ 82, l'épaississant SEPIPLUS™ 400 ainsi que le MONTANOX™ 60D, afin d'effectuer des applications topiques biquotidiennes sur le visage de sujets caucasiens âgés de 45 ans à 76 ans et présentant des rides de vieillissement cutané (environ 20 volontaires/groupe). Un produit lipopeptidique commercial de référence a également été testé selon le même protocole expérimental.
La région anatomique choisie pour cette étude était la zone du contour de l'oeil (patte d'oie).
La durée du traitement a été de 42 jours.
Les résultats ont été exprimés en termes de surface ridée totale et de nombre de rides par rapport à un produit lipopeptidique commercial de référence.

[4] = tested on: gène codant la dermatopontine (DPT); test: Q-PCR gene expression in replicative senescent human dermal fibroblasts: DPT; format: cell-based, humains; details: aged fibroblasts from adult dermis (16 passages), cultured 96 h with the substance, compared with young cells (8 passages, 100 %)
Source text: as §1, §2

[5] = tested on: gène codant la cytokine pro-inflammatoire IL-6; test: Q-PCR gene expression in replicative senescent human dermal fibroblasts: IL-6; format: cell-based, humains; details: aged fibroblasts from adult dermis (16 passages), cultured 96 h with the substance, compared with young cells (8 passages, 100 %)
Source text: as §1, §2

[6] = tested on: gène codant la protéine de choc thermique (HSP 90A); test: Q-PCR gene expression in replicative senescent human dermal fibroblasts: HSP 90A; format: cell-based, humains; details: aged fibroblasts from adult dermis (16 passages), cultured 96 h with the substance, compared with young cells (8 passages, 100 %)
Source text: as §1, §2

[7] = tested on: gène codant la pleiotrophine (PTN); test: Q-PCR gene expression in replicative senescent human dermal fibroblasts: PTN; format: cell-based, humains; details: aged fibroblasts from adult dermis (16 passages), cultured 96 h with the substance, compared with young cells (8 passages, 100 %)
Source text: as §1, §2

[8] = tested on: gène codant la tenascine C (TNC); test: Q-PCR gene expression in replicative senescent human dermal fibroblasts: TNC; format: cell-based, humains; details: aged fibroblasts from adult dermis (16 passages), cultured 96 h with the substance, compared with young cells (8 passages, 100 %)
Source text: as §1, §2

[9] = tested on: gène codant le nidogène (NID); test: Q-PCR gene expression in replicative senescent human dermal fibroblasts: NID; format: cell-based, humains; details: aged fibroblasts from adult dermis (16 passages), cultured 96 h with the substance, compared with young cells (8 passages, 100 %)
Source text: as §1, §2

[10] = tested on: gène codant la Serpine 2B; test: Q-PCR gene expression in replicative senescent human dermal fibroblasts: Serpine 2B; format: cell-based, humains; details: aged fibroblasts from adult dermis (16 passages), cultured 96 h with the substance, compared with young cells (8 passages, 100 %)
Source text: as §1, §2

[11] = tested on: gène codant la Serpine 1H (HSP47); test: Q-PCR gene expression in replicative senescent human dermal fibroblasts: Serpine 1H (HSP47); format: cell-based, humains; details: aged fibroblasts from adult dermis (16 passages), cultured 96 h with the substance, compared with young cells (8 passages, 100 %)
Source text: as §1, §2

[12] = tested on: gène codant le biglycane (BGN); test: Q-PCR gene expression in replicative senescent human dermal fibroblasts: BGN; format: cell-based, humains; details: aged fibroblasts from adult dermis (16 passages), cultured 96 h with the substance, compared with young cells (8 passages, 100 %)
Source text: as §1, §2

[13] = tested on: gène codant la vimentine; test: Q-PCR gene expression in replicative senescent human dermal fibroblasts: vimentine; format: cell-based, humains; details: aged fibroblasts from adult dermis (16 passages), cultured 96 h with the substance, compared with young cells (8 passages, 100 %)
Source text: as §1, §2

niveau d'expression du gène codant la métallo protéinase MMP-1 [1]: diminution du niveau d'expression
Compound: CCCCCCCCCCCCCCCC(=O)N[C@@H](C)C(=O)O [N-palmitoyl alanine]
niveau d'expression du gène codant le collagène de type I (COL1A1) [2]: augmentation du niveau d'expression
diminution de la surface ridée totale [3]: 15%
niveau d'expression du gène codant la dermatopontine (DPT) [4]: augmentation du niveau d'expression
niveau d'expression du gène codant la cytokine pro-inflammatoire IL-6 [5]: diminution du niveau d'expression

niveau d'expression du gène codant la métallo protéinase MMP-1 [1]: diminution du niveau d'expression
Compound: CCCCCCCCCCCCCCCC(=O)NCC(=O)O [N-palmitoyl glycine]
niveau d'expression du gène codant la protéine de choc thermique (HSP 90A) [6]: augmentation du niveau d'expression
diminution du nombre de rides [3]: 35%
niveau d'expression du gène codant la dermatopontine (DPT) [4]: augmentation du niveau d'expression
niveau d'expression du gène codant la pleiotrophine (PTN) [7]: augmentation du niveau d'expression
niveau d'expression du gène codant la tenascine C (TNC) [8]: augmentation du niveau d'expression
niveau d'expression du gène codant la cytokine pro-inflammatoire IL-6 [5]: diminution du niveau d'expression
niveau d'expression du gène codant le nidogène (NID) [9]: augmentation du niveau d'expression

Compound: CCCCCCCCCCCCCCCC(=O)N[C@H](C(=O)O)[C@@H](C)CC [N-palmitoyl isoleucine]
niveau d'expression du gène codant la Serpine 2B [10]: diminution du niveau d'expression
niveau d'expression du gène codant le collagène de type I (COL1A1) [2]: augmentation du niveau d'expression
niveau d'expression du gène codant la protéine de choc thermique (HSP 90A) [6]: augmentation du niveau d'expression
diminution du nombre de rides [3]: 40%
niveau d'expression du gène codant la Serpine 1H (HSP47) [11]: augmentation du niveau d'expression
niveau d'expression du gène codant la dermatopontine (DPT) [4]: augmentation du niveau d'expression
niveau d'expression du gène codant la pleiotrophine (PTN) [7]: augmentation du niveau d'expression
niveau d'expression du gène codant la tenascine C (TNC) [8]: augmentation du niveau d'expression
niveau d'expression du gène codant le biglycane (BGN) [12]: augmentation du niveau d'expression
niveau d'expression du gène codant la cytokine pro-inflammatoire IL-6 [5]: diminution du niveau d'expression
niveau d'expression du gène codant la vimentine [13]: augmentation du niveau d'expression
niveau d'expression du gène codant le nidogène (NID) [9]: augmentation du niveau d'expression
